# Experimental data published in patent US6767741B1, “Metal binding compounds and their use in cell culture medium compositions” (Invitrogen Corporation, priority 1999, dated 2004).
# Tests used:
# Assay type in all cases: cell-based
# Conditions in all cases: third passage
# 293 cells = assay: Growth of 293 cells in transferrin-free 293 SFM with metal binding compounds
# Protocol: Semi-confluent adherent cultures of 293 Cells (ATCC, CRL 1573) are readily adapted to suspension culture. The cells are first detached with a solution of Trypsin-EDTA (0.05% Trypsin, 0.53 mM Na4EDTA), and then resuspended in conventional medium supplemented with 10% FBS to inhibit the trypsin. The resuspended cells are centrifuged at 200×g for five minutes. The cell pellet is resuspended in 293 SFM (available from Life Technologies, Rockville, Md.) the formulation of which is described in WO 98/08934 which is specifically incorporated herein by reference. Alternatively, the cells may be detached with Versene (Na4EDTA, 0.53 mM) and resuspended in 293 SFM.
# The initial seeding density of the 293 cells after conversion to suspension culture is 1×10^6 cells/mL. The cells are shaken on a rotary shaker at 150 rpm in a 37° C. incubator equilibrated with 8% CO2-92% air. When the cells reach a density of 1.5×10^6 cells/mL they are diluted with 293 SFM to a density of 3.0×10^5 cells/mL. Because 293 cells have a tendency to aggregate, the cells may be vortexed vigorously for approximately 45 seconds to obtain a predominantly single cell suspension at the time of passaging and counting. After several passages in suspension culture, the maximum achievable density may be determined.
# The ability of metal binding compounds to support cellular growth was evaluated using 293 cells maintained in 293 SFM (Life Technologies, Rockville, Md.) without transferrin or metal binding compound. Stock cultures containing 5 μg/mL human holo-transferrin were prepared in 293 SFM. For metal binding compound evaluation, 293 cells were established in 125 mL shaker flasks at an initial viable seeding density of 2×10^5 cells/mL in a final volume of 20 mL. All cultures were maintained at 37° C. in humidified air containing 8% CO2. To eliminate transferrin carry-over effects, cells were subcultured at 4 day intervals for a total of three passages. At each subculturing, cells were seeded at a density of 2×10^5 cells/mL. Positive control cultures contained 5 μg/mL human holo-transferrin while negative control cultures were established in the absence of either transferrin or metal binding compound. Metal binding compound stocks were prepared at 0.1M-0.2M in ddH2O and solubilized when necessary using 5N NaOH or HCl. Iron complexes were established using 0.2M metal binding compound and iron stocks mixed 1:1 (v/v) and incubated for 5-10 minutes at 22° C. All solutions containing metal binding compounds were filter sterilized using a 0.22 μm Millex-GV filter prior to addition to transferrin and serum-free media.
# In most cases, metal binding compounds were evaluated either alone or in combination with ferric chloride or ferrous sulfate at 25 μM, 50 μM and 100 μM. When used in combination, the metal binding compounds were used in equimolar concentration with iron ions. Values in the table represent the mean percentage of control growth for duplicate cultures determined at the third passage.
# (§1) When added to the medium formulation un-complexed, the metal binding compound is listed alone, when added as a complex with a transition metal, the source of the transition metal is listed with the metal binding compound.
# CHO cells = assay: Growth of CHO cells in transferrin-free CD CHO medium with metal binding compounds
# Protocol: The ability of metal binding compounds to support cellular growth in the absence of transferrin was evaluated using CHO cells maintained in CD CHO medium (Life Technologies, Rockville, Md., the formulation of which is described in WO 98/08934). Stock cultures containing 5 μg/mL human holo-transferrin were prepared in CD CHO medium. For metal binding compound evaluation, CHO cells were established in 125 mL shaker flasks at an initial viable seeding density of 1×10^5 cells/mL in a final volume of 20 mL. All cultures were maintained at 37° C. in humidified air containing 8% CO2. To eliminate transferrin carry-over effects, cells were subcultured at 4 day intervals for a total of three passages. Positive control cultures contained 5 μg/mL human holo-transferrin while negative control cultures were established in the absence of either transferrin or metal binding compound. Metal binding compound stocks were prepared at 0.1M-0.2M in ddH2O and solubilized when necessary using 5N NaOH or HCl. Iron complexes were established using 0.2M metal binding compound and iron stocks mixed 1:1 (v/v) and incubated for 5-10 minutes at 22° C. All solutions containing metal binding compounds were filter sterilized using a 0.22 μm Millex-GV filter prior to addition to transferrin and serum-free media.
# (§2) In most cases, metal binding compounds were evaluated either alone or in combination with ferric chloride or ferrous sulfate at 25 μM, 50 μM and 100 μM. Values in the table represent the mean percentage of control growth for duplicate cultures determined at the third passage.
# as §1, with “The ability of various metal binding compounds to substitute for transferrin in the culture of CHO cells was determined. When” for “When”
# Sp2/0 cells = assay: Growth of Sp2/0 cells in transferrin-free CD Hybridoma medium with metal binding compounds
# Protocol: The ability of iron metal binding compounds to support cellular growth in the absence of transferrin was evaluated using Sp2/0 cells maintained in CD Hybridoma medium (Life Technologies, Rockville, Md.). Stock cultures containing 5 μg/mL human holo-transferrin were prepared in CD Hybridoma medium. For metal binding compound evaluation, Sp2/0 cells were established at an initial viable cell density of 0.5×10^5 cells/mL in stationary culture using 75 cm^2 tissue culture flasks in a final volume of 20 mL. All cultures were maintained at 37° C. in humidified air containing 8% CO2. To eliminate transferrin carry-over effects, cells were subcultured at the same seeding density at 4 day intervals for a total of three passages. Positive control cultures contained 5 μg/mL human holotransferrin while negative control cultures were established in the absence of either transferrin or metal binding compound. Metal binding compound stocks were prepared at 0.1M-0.2M in ddH2O and solubilized when necessary using 5N NaOH or HCl. Iron complexes were established using 0.2M metal binding compound and iron stocks mixed 1:1 (v/v) and incubated for 5-10 minutes at 22° C. All solutions containing metal binding compounds were filter sterilized using a 0.22 μm Millex-GV filter prior to addition to transferrin and serum-free media.
# as §2, §1
# [1] = 25 μM, control = 5 μg/mL human holo-transferrin, duplicate cultures
# [2] = 50 μM, control = 5 μg/mL human holo-transferrin, duplicate cultures
# [3] = 100 μM, control = 5 μg/mL human holo-transferrin, duplicate cultures
# [4] = 5 μM, control = holo-transferrin
# [5] = 10 μM, control = holo-transferrin
# [6] = 20 μM, control = holo-transferrin
Structure (SMILES),mean percentage of control growth (293 cells; [1]),mean percentage of control growth (293 cells; [2]),mean percentage of control growth (293 cells; [3]),mean percentage of control growth (CHO cells; [1]),mean percentage of control growth (CHO cells; [2]),mean percentage of control growth (CHO cells; [3]),mean percentage of control growth (Sp2/0 cells; [1]),mean percentage of control growth (Sp2/0 cells; [2]),mean percentage of control growth (Sp2/0 cells; [3]),mean percentage of control growth (293 cells; [4]),mean percentage of control growth (293 cells; [5]),mean percentage of control growth (293 cells; [6]),mean percentage of control growth (Sp2/0 cells; [4]),mean percentage of control growth (Sp2/0 cells; [5]),mean percentage of control growth (Sp2/0 cells; [6]),mean percentage of control growth (CHO cells; [4]),mean percentage of control growth (CHO cells; [5]),mean percentage of control growth (CHO cells; [6])
"[Cl][Fe]([Cl])[Cl].c1ccc(Nc2ccccn2)nc1 [2,2-Dipyridylamine · Ferric Chloride]",118%,96%,101%,40%,48%,65%,,,,,,,,,,,,
CCc1occc(=O)c1O [2-Ethyl-3-Hydroxy-4-Pyrone],59%,120%,126%,9%,60%,113%,0%,75%,116%,,,,,,,,,
O=C(O)c1ccccn1.[Cl][Fe]([Cl])[Cl] [2-Pyridinecarboxylic Acid · Ferric Chloride],,,,88%,89%,100%,0%,30%,48%,,,,,,,,,
[Cl][Fe]([Cl])[Cl].[O-][n+]1cccc(O)c1 [3-Hydroxypyridine-N-Oxide · Ferric Chloride],77%,72%,81%,77%,66%,101%,55%,54%,57%,,,,,,,,,
Cc1ncc(CO)c(C(=O)O)c1O.[Cl][Fe]([Cl])[Cl] [4-Pyridoxic Acid · Ferric Chloride],109%,85%,99%,55%,63%,100%,40%,73%,76%,,,,,,,,,
NC(CC(=O)O)C(=O)O.[Cl][Fe]([Cl])[Cl] (stereo not drawn) [Aspartic Acid · Ferric Chloride],81%,86%,100%,77%,89%,112%,,,,,,,,,,,,
NC(CS)C(=O)O.O=S(=O)([O-])[O-].[Fe+2] (stereo not drawn) [Cysteine · Ferrous Sulfate],,,,83%,64%,45%,85? %,79%,67%,,,,,,,,,
CC(=O)N(O)CCCCCNC(=O)CCC(=O)N(O)CCCCCNC(=O)CCC(=O)N(O)CCCCCN.CS(=O)(=O)O.[Cl][Fe]([Cl])[Cl] [Deferoxamine Mesylate · Ferric Chloride],,,,,,,,,,101%,120%,127%,0%,0%,0%,50%,74%,52%
O=C(O)CN(CCN(CC(=O)O)CC(=O)O)CCN(CC(=O)O)CC(=O)O.O=S(=O)([O-])[O-].[Fe+2] [Diethylenetriamine Penta-Acetic Acid · Ferrous Sulfate],77%,107%,85%,135%,137%,147%,54%,90%,91%,,,,,,,,,
"[Cl][Fe]([Cl])[Cl] [Ferric Chloride, reference compound]",87%,91%,109%,56%,85%,101%,55%,73%,74%,,,,,,,,,
O=c1cc(CO)occ1O.[Cl][Fe]([Cl])[Cl] [Kojic Acid · Ferric Chloride],,,,89%,88%,85%,0%,0%,0%,,,,,,,,,
O=c1cc(CO)occ1O [Kojic Acid],,,,0%,0%,0%,0%,0%,0%,,,,,,,,,
O=C(O)c1ccc[n+]([O-])c1.[Cl][Fe]([Cl])[Cl] [Nicotinic Acid-N-Oxide · Ferric Chloride],104%,80%,79%,60%,84%,105%,,,,,,,,,,,,
OC[C@@H](O)[C@@H](O)[C@H](O)[C@@H](O)CO.[Cl][Fe]([Cl])[Cl] [Sorbitol · Ferric Chloride],,,,100%,107%,112%,94%,55%,60%,,,,,,,,,
